These results are taken from patent US20080299062A1, “Use of Oxocarboxylic Acids-Containing Combinations for Deodorization” (priority 2004, published 2008).

Experiment [1] in a line: Odor of permanently waved hair strands, leave-on method (base: conditioner). On the procedure: The test substances were tested on hair that had been freshly permanently waved. To this end, hair braids were cut into 2.5-cm pieces, bleached for 30 minutes and washed with perfume-free shampoo. To obtain fully odorless strands, the strands were then dipped three times into a mixture of isopropanol 25%/ethanol 25%/water 50%. The hair was kept for 24 hours in a conditioning room (20° C. at 85% relative humidity) and then cut to a weight of 2 g. This was followed by an odor test. Ten strands per post-treatment agent to be tested were wound onto rollers (diameter: 13 mm) and kept overnight in the conditioning room (20° C. at 85% relative humidity). The next morning, these strands were subjected to permanent waving.
Ten rollers holding 2 g of hair each were placed in a crystallizing dish and covered twice with 20 g of a commercial wave lotion, the rollers being turned over after the first 20 g to ensure uniform distribution. The rollers were then placed in a drier at 40° C. for 15 min, after which they were rinsed with water for 5 minutes namely for 2 min under running city water and for an additional 3 min by immersing them in water. The hair was then dabbed dry with a paper napkin. Afterward, the fixation was carried out with the aid of a commercial foam fixative. To this end, the rollers were immersed for 3 min in 500 mL of fixing solution. Excess fixing solution was then poured off, and the rollers were allowed to stand for an additional 7 minutes. They were then again rinsed with water for 5 min (see above) and dabbed dry with a paper napkin. Finally, the hair was detached from the roller and placed in a drier at 40° C. for 60 minutes.
To test the efficacy of the compounds as permanent wave post-treatment agents, the zinc salts and the corresponding zinc-free acids alone were incorporated at two different pH values into common cosmetic product bases. Zinc citrate (trizinc dicitrate) made soluble with a slight excess of citric acid was tested as the reference substance for a zinc salt without the odor-influencing counterion. The oxocarboxylic acids were used both as the sodium salts and in the form of their zinc salts. The pH values were then adjusted with citric acid or NaOH.
In the following example, 0.5 mL of a leave-on conditioner was massaged into the freshly permanently waved hair (2 g in each case), and after a contact time of 10 min the odor was evaluated by five test subjects (Table 1). In each case, the odor evaluation was performed on 3 test strands. The average values of the evaluation results are tabulated.
Each symbol stands for one test strand. • ◯=odor indistinguishable from that of blank • +=odor better than that of blank • ++=odor appreciably better than that of blank/odorless

Experiment [2] is described as follows: Odor of permanently waved hair strands, rinse-off method (base: hair-cure agent).
Experiment [3] is described as follows: Various odor tests carried out on permanently waved hair (general statements). The conditions noted are these: sulfur odor of permanently waved hair; general statement.

Take zinc levulinate [Zn levulinate]: in experiment [1] (pH 2-3 and pH 4-5, summary of Table 1), the “odor-reducing action (efficacy), in words” value is “unique in the entire pH range tested”. Besides, the “Odor rating vs blank, Day 1, pH 2-3” value is “+ + +” in experiment [1] (test substance 0.01 wt. %, Day 1, wet, pH 2-3, each symbol = one test strand) and “+ + +” in experiment [2] (rinse-off hair-cure agent, 5-min contact, table head 0.01 wt. % (text b103: 0.1 wt. %), Day 1, wet, pH 2-3, each symbol = one test strand). Further, the “Odor rating vs blank, Day 1, pH 4-5” value in experiment [1] (test substance 0.01 wt. %, Day 1, wet, pH 4-5, each symbol = one test strand) is “++ ++ and ++”; in experiment [2] (rinse-off hair-cure agent, 5-min contact, table head 0.01 wt. % (text b103: 0.1 wt. %), Day 1, wet, pH 4-5, each symbol = one test strand), “++ ++ and ++”. Further, the “Odor rating vs blank, Day 2, pH 2-3” value was “+ + +” in experiment [1] (test substance 0.01 wt. %, Day 2, dry, pH 2-3, each symbol = one test strand) and “+ + +” in experiment [2] (rinse-off hair-cure agent, 5-min contact, table head 0.01 wt. % (text b103: 0.1 wt. %), Day 2, dry, pH 2-3, each symbol = one test strand). For the same substance, the “Odor rating vs blank, Day 2, pH 4-5” value in experiment [1] (test substance 0.01 wt. %, Day 2, dry, pH 4-5, each symbol = one test strand) was “+ + ++”; in experiment [2] (rinse-off hair-cure agent, 5-min contact, table head 0.01 wt. % (text b103: 0.1 wt. %), Day 2, dry, pH 4-5, each symbol = one test strand), “+ + +”. Moreover, the “Odor rating vs blank, Day 3, pH 2-3” value in experiment [1] (test substance 0.01 wt. %, Day 3, wet, pH 2-3, each symbol = one test strand) is on record as “+ + +”; in experiment [2] (rinse-off hair-cure agent, 5-min contact, table head 0.01 wt. % (text b103: 0.1 wt. %), Day 3, wet, pH 2-3, each symbol = one test strand), “+ + +”. Moreover, the “Odor rating vs blank, Day 3, pH 4-5” value in experiment [1] (test substance 0.01 wt. %, Day 3, wet, pH 4-5, each symbol = one test strand) was “++ ++ and ++”; in experiment [2] (rinse-off hair-cure agent, 5-min contact, table head 0.01 wt. % (text b103: 0.1 wt. %), Day 3, wet, pH 4-5, each symbol = one test strand) it was “+ + +”. The “Odor rating vs blank, Day 4, pH 2-3” value in experiment [1] (test substance 0.01 wt. %, Day 4, dry, pH 2-3, each symbol = one test strand) was “+ + +”; in experiment [2] (rinse-off hair-cure agent, 5-min contact, table head 0.01 wt. % (text b103: 0.1 wt. %), Day 4, dry, pH 2-3, each symbol = one test strand), “+ + +”. The “Odor rating vs blank, Day 4, pH 4-5” value in experiment [1] (test substance 0.01 wt. %, Day 4, dry, pH 4-5, each symbol = one test strand) is “+ ++ and ++”; in experiment [2] (rinse-off hair-cure agent, 5-min contact, table head 0.01 wt. % (text b103: 0.1 wt. %), Day 4, dry, pH 4-5, each symbol = one test strand), “++ + ++”. Further, the “odor-reducing effect, in words” value in experiment [2] (lowest concentrations in rinse-off products, applied immediately after permanent wave treatment or up to four days later) is listed as “drastic odor-reducing effect”. In addition, the “odor-reducing effect on permanently waved hair, in words” value in experiment [3] is on record as “much more intense than that of any other zinc compound”.
